Results taken from patent US11066363B2, “Substituted 6,11-dihydro-5H-benzo[B]carbazoles as inhibitors of ALK and SRPK” (Dana-Farber Cancer Institute, Inc., priority 2015, dated 2021).
Where two headings read alike, the source gives them in different places.

What was measured:
[1] = test system: H3122 cells (NSCLC); assay type: cell-based; details: Homo sapiens
[2] = test system: DFCI76 (L1152R) cells (NSCLC); assay type: cell-based; details: read-out: IC50 Tumor Cell Line DFCI76 (L1152R)
[3] = biological target: SRPK1 (Homo sapiens (Human), UniProt Q96SB4); test: SRPK1 inhibitory activity; assay type: biochemical
[4] = biological target: SRPK2 (Homo sapiens (Human), UniProt P78362); test: SRPK2 inhibitory activity; assay type: biochemical
[5] = biological target: CD74-ROS transduced Ba/F3 cells (Homo sapiens, UniProt P08922); test: Ba/F3 proliferation assay; assay type: cell-based; details: read-out: IC50 Ba/F3 CD74-ROS; Table 6
Description: (§1) The MTS assay is a colorimetric method for determining the number of viable cells that is based on the bioreduction of MTS by cells to a formazan product that is soluble in cell culture medium and can be detected spectrophotometrically. […] All experimental points were set up in six wells and all experiments were repeated at least three times. […] The curves were fitted using a non-linear regression model with a sigmoidal dose response.

[6] = biological target: del19EGFR transduced Ba/F3 cells (Homo sapiens, UniProt P00533, cells depend on it, form not given); test: Ba/F3 proliferation assay; assay type: cell-based; details: read-out: IC50 Ba/F3 del19EGFR; Table 6
[7] = test system: mutant EGFR PC9 cell line; details: in words
Protocol: Cell viability was evaluated using CellTiter-Glo Luminescent Cell Viability Assay (Promega) following manufacturer's instruction. IC50 values were calculated by nonlinear regression (variable slope) using GraphPad Prism 5 software. Each experiment was repeated for at least twice.

[8] = biological target: EML4-ALK C1156Y transformed Ba/F3 cells (Homo sapiens, UniProt Q9UM73, C1156Y, cells depend on it); test: Ba/F3 dose escalation MTS viability assay; assay type: cell-based; details: 72 hours
Description: as §1
(§2) Untransduced Ba/F3 control was used as a cytotoxicity control.

[9] = biological target: EML4-ALK L1152R transformed Ba/F3 cells (Homo sapiens, UniProt Q9UM73, L1152R, cells depend on it); test: Ba/F3 dose escalation MTS viability assay; assay type: cell-based; details: 72 hours
Description: as §1, §2

[10] = biological target: EML4-ALK G1202R transformed Ba/F3 cells (Homo sapiens, UniProt Q9UM73, G1202R, cells depend on it); test: Ba/F3 dose escalation MTS viability assay; assay type: cell-based; details: 72 hours
Description: as §1, §2

[11] = biological target: EML4-ALK G1269A transformed Ba/F3 cells (Homo sapiens, UniProt Q9UM73, G1269A, cells depend on it); test: Ba/F3 dose escalation MTS viability assay; assay type: cell-based; details: 72 hours
Description: as §1, §2

[12] = biological target: EML4-ALK S1206Y transformed Ba/F3 cells (Homo sapiens, UniProt Q9UM73, S1206Y, cells depend on it); test: Ba/F3 dose escalation MTS viability assay; assay type: cell-based; details: 72 hours
Description: as §1, §2

[13] = test system: EML4-ALK wt transformed Ba/F3 cells; test: Ba/F3 single point inhibition assay (MTS); assay type: cell-based; details: single dose 1 μM, 72 hours
Description: as §1

[14] = test system: EML4-ALK^G1202R transformed Ba/F3 cells; test: Ba/F3 single point inhibition assay (MTS); assay type: cell-based; details: single dose 1 μM, 72 hours
Description: as §1

[15] = biological target: EML4-ALK^WT transformed Ba/F3 cells (Homo sapiens, UniProt Q9UM73); test: Ba/F3 dose escalation MTS viability assay; details: read-out: IC50 wt, 72 hours
Description: as §1, §2

[16] = biological target: EML4-ALK L1196M transformed Ba/F3 cells (Homo sapiens, UniProt Q9UM73, L1196M, cells depend on it); test: Ba/F3 dose escalation MTS viability assay; details: read-out: IC50 L1196M, 72 hours
Description: as §1, §2

[17] = biological target: panel of 456 kinases; test: KINOMESCAN kinase selectivity profiling; assay type: binding; details: screened at 1 μM
[18] = mouse, in vivo, iv, 2 mg/kg, 8 h

Molecule CCc1cc2c(cc1N1CCC(N3CCOCC3)CC1)C(C)(C)c1[nH]c3cc(C#N)ccc3c1C2=O [Alectinib] has an IC50 ([1]; NCI-H3122, read-out: IC50 Tumor Cell Line H3122) of 7 ± 4 nM, an IC50 [2] of 26 ± 27 nM and an IC50 [3] of 11 nM. The IC50 [4] was 28.2 nM.

For Cc1cc(Nc2ncc(Cl)c(Nc3ccccc3S(=O)(=O)C(C)C)n2)c(OC(C)C)cc1C1CCNCC1 [Ceritinib], the IC50 ([1]; NCI-H3122, Table 6, read-out: IC50 Tumor Cell Line H3122) was 13 ± 5 nM.

For CCc1cc2c(cc1-c1cnn(CC(=O)N(C)C)c1)C(C)(C)c1[nH]c3cc(C#N)ccc3c1C2=O [Compound 6, 2-(4-(3-cyano-9-ethyl-6,6-dimethyl-11-oxo-6,11-dihydro-5H-benzo[b]carbazol-8-yl)-1H-pyrazol-1-yl)-N,N-dimethylacetamide], the IC50 [5] was 678 ± 109 nM, the IC50 [6] was 281 ± 1 nM and the “inhibition of mutant EGFR PC9 cell line” value [7] was “not inhibited”.

CCc1cc2c(cc1-c1cnoc1)C(C)(C)c1[nH]c3cc(C#N)ccc3c1C2=O [Compound 10, 9-ethyl-8-(isoxazol-4-yl)-6,6-dimethyl-11-oxo-6,11-dihydro-5H-benzo[b]carbazole-3-carbonitrile] showed an IC50 [8] of 116 nM, an IC50 [9] of 345 nM and an IC50 [10] of 80 nM. The IC50 [11] was 186 nM, the IC50 [12] was 728 nM and the “Percent viability of untreated control, wt” value (from here on “Percent viability … wt”) [13] was 2%. For the same molecule, the “Percent viability of untreated control, G1202R” value (from here on “Percent viability … G1202R”) [14] was 3%, the IC50 [3] was 5.09 nM and the IC50 [4] was 14.5 nM. For the same molecule, the IC50 [15] was 59 nM and the IC50 [16] was 634 nM.

CCc1cc2c(cc1-c1cnn[nH]1)C(C)(C)c1[nH]c3cc(C#N)ccc3c1C2=O [Compound 13, 9-ethyl-6,6-dimethyl-11-oxo-8-(1H-1,2,3-triazol-5-yl)-6,11-dihydro-5H-benzo[b]carbazole-3-carbonitrile] showed an IC50 [8] of 177 nM, an IC50 [9] of 345 nM and an IC50 [10] of 214 nM. The IC50 [11] was 256 nM, the IC50 [12] was 1610 nM and the “Percent viability … wt” value [13] was 6%. For the same molecule, the “Percent viability … G1202R” value [14] was 7%, the IC50 [3] was 0.884 nM and the IC50 [4] was 7.46 nM. It also gave an IC50 [15] of 115 nM and an IC50 [16] of 629 nM.

With CCc1cc2c(cc1-c1cnn(CCN(C)C)c1)C(C)(C)c1[nH]c3cc(C#N)ccc3c1C2=O [Compound 31, 8-(1-(2-(dimethylamino)ethyl)-1H-pyrazol-4-yl)-9-ethyl-6,6-dimethyl-11-oxo-6,11-dihydro-5H-benzo[b]carbazole-3-carbonitrile] the IC50 [8] was 24 nM, the IC50 [9] was 548 nM and the IC50 [10] was 8 nM. For the same molecule, the IC50 [11] was 11 nM, the IC50 [12] was 6 nM and the “Percent viability … wt” value [13] was 1%. The “Percent viability … G1202R” value [14] was 1%, the IC50 [3] was 1.91 nM and the IC50 [4] was 6.6 nM. It also gave an IC50 [15] of 2 nM and an IC50 [16] of 80 nM.

In the case of CCc1cc2c(cc1-c1cnn(CCCN(C)C)c1)C(C)(C)c1[nH]c3cc(C#N)ccc3c1C2=O [Compound 32, 8-(1-(3-(dimethylamino)propyl)-1H-pyrazol-4-yl)-9-ethyl-6,6-dimethyl-11-oxo-6,11-dihydro-5H-benzo[b]carbazole-3-carbonitrile], the “Percent viability … wt” value [13] is reported as 0%, the “Percent viability … G1202R” value [14] is reported as 0% and the KINOMESCAN interactions mapped [17] is reported as 39. It also gave a Conc. [18] of 80 nM.
